Results on ten compounds are retold here after patent publication US20180000085A1, “USE OF PICOLINAMIDE COMPOUNDS WITH FUNGICIDAL ACTIVITY” (DOW AGROSCIENCES LLC, priority 2014, published 2018).

For one experiment, the system named is Puccinia triticina. Put plainly: Wheat brown rust (PUCCRT) disease control on wheat seedlings. As to conditions: for PUCCRT 1DP, LV activity at 125.1 g/H (% Control rating) / PUCCRT 3DC, LV activity at 125.1 g/H (% Control rating) / PUCCRT 1DP disease control rating, LV activity at 125.1 g/H / PUCCRT 3DC disease control rating, LV activity at 125.1 g/H / LV activity at 125.1 g/H PUCCRT 1DP (disease control rating) / LV activity at 125.1 g/H PUCCRT 3DC (disease control rating): low volume application; for PUCCRT 1DP disease control rating, LV activity at 125.1 g/H / PUCCRT 1DP disease control rating, HV activity at 100 ppm: 1 day protectant; for PUCCRT 3DC disease control rating, LV activity at 125.1 g/H / PUCCRT 3DC disease control rating, HV activity at 100 ppm: 3 day curative; for PUCCRT 1DP disease control rating, HV activity at 100 ppm / PUCCRT 3DC disease control rating, HV activity at 100 ppm: high volume application. Details: key to PUCCRT 3DC, HV activity at 100 ppm (% control rating) / PUCCRT disease control, 3DC / PUCCRT 1DP disease control rating, HV activity / PUCCRT 3DC disease control rating, HV activity / PUCCRT 3DC, LV activity at 125.1 g/H (% Control rating) / PUCCRT 1DP, LV activity at 125.1 g/H (% Control rating) / PUCCRT 3DC disease control rating, LV activity at 125.1 g/H / PUCCRT 1DP disease control rating, LV activity at 125.1 g/H / PUCCRT 3DC disease control rating, HV activity at 100 ppm / PUCCRT 1DP disease control rating, HV activity at 100 ppm / HV activity at 100 ppm PUCCRT 3DC (disease control rating) / LV activity at 125.1 g/H PUCCRT 1DP (disease control rating) / LV activity at 125.1 g/H PUCCRT 3DC (disease control rating): A: > 80; B: ≤ 80; C: Not Tested; D: No Activity Observed in the Reported Assay. The class given is in vivo.

Another experiment deals with Zymoseptoria tritici. Put plainly: Leaf blotch of wheat (SEPTTR) disease control on wheat seedlings. The class given is in vivo. Further details: key to SEPTTR 1DP, HV activity at 100 ppm (% control rating) / SEPTTR 3DC, HV activity at 100 ppm (% control rating) / SEPTTR disease control, 1DP / SEPTTR disease control, 3DC / SEPTTR 1DP disease control rating, HV activity / SEPTTR 3DC disease control rating, HV activity / SEPTTR 3DC, LV activity at 125.1 g/H (% Control rating) / SEPTTR 1DP, LV activity at 125.1 g/H (% Control rating) / SEPTTR 1DP disease control rating, LV activity at 125.1 g/H / SEPTTR 3DC disease control rating, LV activity at 125.1 g/H / SEPTTR 3DC disease control rating, HV activity at 100 ppm / SEPTTR 1DP disease control rating, HV activity at 100 ppm / HV activity at 100 ppm SEPTTR 3DC (disease control rating) / HV activity at 100 ppm SEPTTR 1DP (disease control rating) / LV activity at 125.1 g/H SEPTTR 1DP (disease control rating) / LV activity at 125.1 g/H SEPTTR 3DC (disease control rating): A: > 80; B: ≤ 80; C: Not Tested; D: No Activity Observed in the Reported Assay. As to conditions: for SEPTTR 1DP, LV activity at 125.1 g/H (% Control rating) / SEPTTR 3DC, LV activity at 125.1 g/H (% Control rating) / SEPTTR 1DP disease control rating, LV activity at 125.1 g/H / SEPTTR 3DC disease control rating, LV activity at 125.1 g/H / LV activity at 125.1 g/H SEPTTR 1DP (disease control rating) / LV activity at 125.1 g/H SEPTTR 3DC (disease control rating): low volume application; for SEPTTR 1DP disease control rating, LV activity at 125.1 g/H / SEPTTR 1DP disease control rating, HV activity at 100 ppm: 1 day protectant; for SEPTTR 3DC disease control rating, LV activity at 125.1 g/H / SEPTTR 3DC disease control rating, HV activity at 100 ppm: 3 day curative; for SEPTTR 1DP disease control rating, HV activity at 100 ppm / SEPTTR 3DC disease control rating, HV activity at 100 ppm: high volume application.

Setting [1] is: 1 Day Protectant, wheat brown rust.
Setting [2] is: 3 Day Curative, wheat brown rust.
[3] abbreviates: 1 Day Protectant, wheat leaf blotch.
Where [4] appears, read: 3 Day Curative, wheat leaf blotch.

For the compound `CCCOCC(C)OC(=O)C(C)NC(=O)c1nccc(OC)c1OCOC(=O)C(C)C` (centres unmarked) [Cmpd 523], the “PUCCRT 1DP, LV activity at 125.1 g/H (% Control rating)” value (“PUCCRT 1DP … (% Control rating)” below) in the experiment with Puccinia triticina (1 Day Protectant) is listed as “D”. Further, the “PUCCRT 3DC, LV activity at 125.1 g/H (% Control rating)” value (shortened to “PUCCRT 3DC … (% Control rating)”) in the experiment with Puccinia triticina (3 Day Curative) was “D”. Further, the “SEPTTR 1DP, LV activity at 125.1 g/H (% Control rating)” value (“SEPTTR 1DP … (% Control rating)” for short) in the experiment on Zymoseptoria tritici (1 Day Protectant) is reported as “D”. Further, the “SEPTTR 3DC, LV activity at 125.1 g/H (% Control rating)” value (“SEPTTR 3DC … (% Control rating)” below) with Zymoseptoria tritici (3 Day Curative) was “D”.

Take `COc1ccnc(C(=O)NC(C)C(=O)OC(C)COC(=O)C(C)C)c1OCOC(=O)C(C)C` (centres unmarked) [Cmpd 531]: in the experiment with Puccinia triticina (1 Day Protectant), the “PUCCRT 1DP … (% Control rating)” value is on record as “D”. Moreover, the “PUCCRT 3DC … (% Control rating)” value with Puccinia triticina (3 Day Curative) is listed as “D”. In addition, the “SEPTTR 1DP … (% Control rating)” value in the experiment with Zymoseptoria tritici (1 Day Protectant) was “D”. Also, the “SEPTTR 3DC … (% Control rating)” value with Zymoseptoria tritici (3 Day Curative) is “B (≤ 80)”.

Regarding `CCC(CC)C(Oc1cccc(F)c1)C(C)OC(=O)C(C)NC(=O)c1nccc(OC)c1OC(C)=O` (centres unmarked) [Cmpd 673], in the experiment on Puccinia triticina, the “PUCCRT 1DP disease control rating, LV activity at 125.1 g/H” value is “A (> 80)” and the “PUCCRT 3DC disease control rating, LV activity at 125.1 g/H” value is given as “B (≤ 80)”. Also, in the experiment on Zymoseptoria tritici, the “SEPTTR 1DP disease control rating, LV activity at 125.1 g/H” value was “B (≤ 80)” and the “SEPTTR 3DC disease control rating, LV activity at 125.1 g/H” value is recorded as “A (> 80)”.

For `COc1ccnc(C(=O)N[C@@H](C)C(=O)O[C@@H](C)[C@H](OCC2CC2)C(C)(C)C)c1O` [Cmpd 1004], in the experiment on Puccinia triticina, the “PUCCRT 1DP disease control rating, HV activity at 100 ppm” value is given as “A (> 80)” and the “PUCCRT 3DC disease control rating, HV activity at 100 ppm” value is “A (> 80)”. Moreover, in the experiment on Zymoseptoria tritici, the “SEPTTR 1DP disease control rating, HV activity at 100 ppm” value is “B (≤ 80)” and the “SEPTTR 3DC disease control rating, HV activity at 100 ppm” value was “B (≤ 80)”.

As for `CCC[C@@H](OCC1CC1)[C@H](C)OC(=O)[C@H](C)NC(=O)c1nccc(OC)c1OC(C)=O` [Cmpd 1057], in the experiment with Puccinia triticina (setting [1]), the “LV activity at 125.1 g/H PUCCRT 1DP (disease control rating)” value is recorded as “B (≤ 80)”. In the experiment on Puccinia triticina (setting [2]), the “LV activity at 125.1 g/H PUCCRT 3DC (disease control rating)” value was “A (> 80)”. Also, the “LV activity at 125.1 g/H SEPTTR 1DP (disease control rating)” value in the experiment with Zymoseptoria tritici (setting [3]) is given as “B (≤ 80)”. In addition, the “LV activity at 125.1 g/H SEPTTR 3DC (disease control rating)” value with Zymoseptoria tritici (setting [4]) is given as “B (≤ 80)”.

As to `CCC(CC)[C@@H](Oc1cccc(-c2ccccc2)c1)[C@H](C)OC(=O)[C@@H](NC(=O)c1nccc(OC)c1OC(C)=O)C(C)C` [Cmpd 664], in the experiment on Puccinia triticina, the “PUCCRT 1DP disease control rating, LV activity at 125.1 g/H” value is “A (> 80)” and the “PUCCRT 3DC disease control rating, LV activity at 125.1 g/H” value was “D”. Besides, in the experiment on Zymoseptoria tritici, the “SEPTTR 1DP disease control rating, LV activity at 125.1 g/H” value is “D” and the “SEPTTR 3DC disease control rating, LV activity at 125.1 g/H” value is “D”.

`COCC(OC(=O)C(C)NC(=O)c1nccc(OC)c1OCOC(C)=O)C(Oc1ccccc1)C(C)C` (centres unmarked) [Cmpd 1090]: the “LV activity at 125.1 g/H PUCCRT 1DP (disease control rating)” value in the experiment with Puccinia triticina (setting [1]) was “D”. Also, in the experiment with Puccinia triticina (setting [2]), the “LV activity at 125.1 g/H PUCCRT 3DC (disease control rating)” value is listed as “B (≤ 80)”. Also, the “LV activity at 125.1 g/H SEPTTR 1DP (disease control rating)” value in the experiment on Zymoseptoria tritici (setting [3]) is “D”. Also, the “LV activity at 125.1 g/H SEPTTR 3DC (disease control rating)” value in the experiment on Zymoseptoria tritici (setting [4]) is “D”.

For the compound `CC[C@H](CCC(C)C)[C@@H](OCC1CC1)[C@H](C)OC(=O)[C@H](C)NC(=O)c1nccc(OC)c1OC(C)=O` [Cmpd 507], the “PUCCRT 1DP … (% Control rating)” value with Puccinia triticina (1 Day Protectant) is listed as “B (≤ 80)”. In the experiment with Puccinia triticina (3 Day Curative), the “PUCCRT 3DC … (% Control rating)” value is given as “B (≤ 80)”. For the same compound, the “SEPTTR 1DP … (% Control rating)” value with Zymoseptoria tritici (1 Day Protectant) is “B (≤ 80)”. The “SEPTTR 3DC … (% Control rating)” value in the experiment with Zymoseptoria tritici (3 Day Curative) is recorded as “B (≤ 80)”.

As for `COc1ccnc(C(=O)N[C@@H](C)C(=O)O[C@@H](C)[C@H](Oc2cccc(F)c2)c2cccc(-c3ccccc3)c2)c1O` [Cmpd 814], in the experiment with Puccinia triticina, the “PUCCRT 1DP disease control rating, HV activity at 100 ppm” value is reported as “B (≤ 80)” and the “PUCCRT 3DC disease control rating, HV activity at 100 ppm” value was “D”. In the experiment on Zymoseptoria tritici, the “SEPTTR 1DP disease control rating, HV activity at 100 ppm” value is on record as “D” and the “SEPTTR 3DC disease control rating, HV activity at 100 ppm” value is “D”.

Consider `CCCOC(CC)C(Oc1ccccc1)C(C)OC(=O)C(C)NC(=O)c1nccc(OC)c1OC(C)=O` (centres unmarked) [Cmpd 450], for which the “PUCCRT 1DP disease control rating, HV activity” value with Puccinia triticina (HV application at 100 ppm, 1 Day Protectant, wheat brown rust) was “A (> 80)”. Besides, the “PUCCRT 3DC disease control rating, HV activity” value in the experiment on Puccinia triticina (HV application at 100 ppm, 3 Day Curative, wheat brown rust) is “A (> 80)”. Further, the “PUCCRT 1DP disease control rating, LV activity” value in the experiment with Puccinia triticina (Low volume application at 125.1 g/H, 1 Day Protectant, wheat brown rust) is “A (> 80)”. In addition, in the experiment on Puccinia triticina (Low volume application at 125.1 g/H, 3 Day Curative, wheat brown rust), the “PUCCRT 3DC disease control rating, LV activity” value is given as “A (> 80)”. Besides, in the experiment with Zymoseptoria tritici (HV application at 100 ppm, 1 Day Protectant, wheat leaf blotch), the “SEPTTR 1DP disease control rating, HV activity” value was “A (> 80)”. In addition, the “SEPTTR 3DC disease control rating, HV activity” value in the experiment with Zymoseptoria tritici (HV application at 100 ppm, 3 Day Curative, wheat leaf blotch) is “A (> 80)”. Also, in the experiment on Zymoseptoria tritici (Low volume application at 125.1 g/H, 1 Day Protectant, wheat leaf blotch), the “SEPTTR 1DP disease control rating, LV activity” value is reported as “B (≤ 80)”. In the experiment on Zymoseptoria tritici (Low volume application at 125.1 g/H, 3 Day Curative, wheat leaf blotch), the “SEPTTR 3DC disease control rating, LV activity” value is on record as “B (≤ 80)”.
